Source: paper PMC9481570, “A small molecule antagonist of SMN disrupts the interaction between SMN and RNAP II” (Nature Communications, 2022)
“And” between values parts separate entries of the source, which are not always exact repeats. Equal values may be shown once.

Key:
Assay in all cases: Affinity-purification and mass spectrometry (AP-MS) chemical proteomics, all proteins;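 for Difference: 200 µM free competitor with 20 µM biotin probe overnight in lysate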
Type in all cases: binding
[1] = molecular target: T1, proteins displaced from immobilized biotin-Cmpd 1 pulldowns (U2OS cell lysate) (Homo sapiens, UniProt P04083); conditions: GN=ANXA1 (P04083)
T1 construct: endogenous in cells; host or cells: U2OS

[2] = molecular target: T2, proteins displaced from immobilized biotin-Cmpd 1 pulldowns (U2OS cell lysate) (Homo sapiens, UniProt P06396); conditions: GN=GSN (P06396)
T2 construct: endogenous in cells; host or cells: U2OS

[3] = molecular target: T3, proteins displaced from immobilized biotin-Cmpd 1 pulldowns (U2OS cell lysate) (Homo sapiens, UniProt P46783); conditions: GN=RPS10 (P46783)
T3 construct: endogenous in cells; host or cells: U2OS

[4] = molecular target: T4, proteins displaced from immobilized biotin-Cmpd 1 pulldowns (U2OS cell lysate) (Homo sapiens, UniProt P61313); conditions: GN=RPL15 (P61313)
T4 construct: endogenous in cells; host or cells: U2OS

[5] = molecular target: T5, proteins displaced from immobilized biotin-Cmpd 1 pulldowns (U2OS cell lysate) (Homo sapiens, UniProt Q08945); conditions: GN=SSRP1 (Q08945)
T5 construct: endogenous in cells; host or cells: U2OS

[6] = molecular target: T6, proteins displaced from immobilized biotin-Cmpd 1 pulldowns (U2OS cell lysate) (Homo sapiens, UniProt Q14980); conditions: GN=NUMA1 (Q14980)
T6 construct: endogenous in cells; host or cells: U2OS

[7] = molecular target: T7, proteins displaced from immobilized biotin-Cmpd 1 pulldowns (U2OS cell lysate) (Homo sapiens, UniProt Q86UE4); conditions: GN=MTDH (Q86UE4)
T7 construct: endogenous in cells; host or cells: U2OS

[8] = molecular target: T8, proteins displaced from immobilized biotin-Cmpd 1 pulldowns (U2OS cell lysate) (Homo sapiens, UniProt Q9BYD6); conditions: GN=MRPL1 (Q9BYD6)
T8 construct: endogenous in cells; host or cells: U2OS

[9] = molecular target: T9, proteins displaced from immobilized biotin-Cmpd 1 pulldowns (U2OS cell lysate) (Homo sapiens, UniProt Q9BZG1); conditions: GN=RAB34 (Q9BZG1)
T9 construct: endogenous in cells; host or cells: U2OS

[10] = molecular target: T10, proteins displaced from immobilized biotin-Cmpd 1 pulldowns (U2OS cell lysate) (Homo sapiens, UniProt Q9NQC3); conditions: GN=RTN4 (Q9NQC3)
T10 construct: endogenous in cells; host or cells: U2OS
T10 sequence (Q9NQC3 whole entry): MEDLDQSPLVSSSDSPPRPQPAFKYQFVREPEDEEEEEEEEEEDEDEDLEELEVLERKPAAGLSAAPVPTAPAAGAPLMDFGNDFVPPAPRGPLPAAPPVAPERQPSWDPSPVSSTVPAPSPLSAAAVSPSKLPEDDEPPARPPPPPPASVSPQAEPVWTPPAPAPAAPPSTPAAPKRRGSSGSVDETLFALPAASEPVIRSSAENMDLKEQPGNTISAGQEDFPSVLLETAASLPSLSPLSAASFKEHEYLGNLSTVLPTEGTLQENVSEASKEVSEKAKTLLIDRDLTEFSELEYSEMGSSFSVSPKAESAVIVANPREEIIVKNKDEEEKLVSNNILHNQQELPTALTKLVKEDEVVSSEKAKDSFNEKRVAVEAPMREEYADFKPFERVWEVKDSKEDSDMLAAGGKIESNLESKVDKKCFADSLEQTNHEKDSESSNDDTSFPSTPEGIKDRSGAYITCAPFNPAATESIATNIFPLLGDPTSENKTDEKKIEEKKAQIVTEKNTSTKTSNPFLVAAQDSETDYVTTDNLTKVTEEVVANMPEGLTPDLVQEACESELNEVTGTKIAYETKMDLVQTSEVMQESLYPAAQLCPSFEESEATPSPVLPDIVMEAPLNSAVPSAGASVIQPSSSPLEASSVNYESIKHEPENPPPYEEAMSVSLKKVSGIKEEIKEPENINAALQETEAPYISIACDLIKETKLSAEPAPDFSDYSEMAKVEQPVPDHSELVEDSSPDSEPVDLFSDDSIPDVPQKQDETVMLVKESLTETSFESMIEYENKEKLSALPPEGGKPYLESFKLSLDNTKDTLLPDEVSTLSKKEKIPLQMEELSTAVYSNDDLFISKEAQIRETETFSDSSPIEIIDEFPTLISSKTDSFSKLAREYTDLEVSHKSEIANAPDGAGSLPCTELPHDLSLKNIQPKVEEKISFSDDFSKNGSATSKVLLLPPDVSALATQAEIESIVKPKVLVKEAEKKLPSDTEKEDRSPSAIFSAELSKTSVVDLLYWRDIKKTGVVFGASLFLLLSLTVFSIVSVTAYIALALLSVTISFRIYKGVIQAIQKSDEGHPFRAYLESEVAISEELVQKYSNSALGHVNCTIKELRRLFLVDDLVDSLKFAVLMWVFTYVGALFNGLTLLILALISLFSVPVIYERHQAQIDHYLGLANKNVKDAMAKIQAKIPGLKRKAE

T2 sequence (P06396 28-782): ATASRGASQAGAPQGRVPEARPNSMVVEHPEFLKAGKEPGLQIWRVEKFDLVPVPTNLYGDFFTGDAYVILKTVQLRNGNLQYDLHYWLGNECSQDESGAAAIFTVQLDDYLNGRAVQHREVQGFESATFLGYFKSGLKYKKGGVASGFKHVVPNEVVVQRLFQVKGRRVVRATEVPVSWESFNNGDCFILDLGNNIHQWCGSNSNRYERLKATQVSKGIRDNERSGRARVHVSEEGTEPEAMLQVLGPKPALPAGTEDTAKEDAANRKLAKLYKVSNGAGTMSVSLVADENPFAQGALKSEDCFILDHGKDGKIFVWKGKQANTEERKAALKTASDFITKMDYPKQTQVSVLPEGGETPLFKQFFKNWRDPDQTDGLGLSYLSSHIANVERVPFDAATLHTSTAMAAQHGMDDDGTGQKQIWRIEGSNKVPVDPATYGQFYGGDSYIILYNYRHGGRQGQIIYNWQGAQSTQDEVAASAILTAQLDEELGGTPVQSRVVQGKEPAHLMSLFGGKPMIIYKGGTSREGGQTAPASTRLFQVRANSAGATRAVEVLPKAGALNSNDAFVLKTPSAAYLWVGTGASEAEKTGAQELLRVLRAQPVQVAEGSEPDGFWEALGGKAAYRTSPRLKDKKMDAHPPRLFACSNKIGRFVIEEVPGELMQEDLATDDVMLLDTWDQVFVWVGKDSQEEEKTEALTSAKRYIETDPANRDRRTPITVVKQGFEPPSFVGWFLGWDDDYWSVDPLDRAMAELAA
T9 sequence (Q9BZG1 whole entry): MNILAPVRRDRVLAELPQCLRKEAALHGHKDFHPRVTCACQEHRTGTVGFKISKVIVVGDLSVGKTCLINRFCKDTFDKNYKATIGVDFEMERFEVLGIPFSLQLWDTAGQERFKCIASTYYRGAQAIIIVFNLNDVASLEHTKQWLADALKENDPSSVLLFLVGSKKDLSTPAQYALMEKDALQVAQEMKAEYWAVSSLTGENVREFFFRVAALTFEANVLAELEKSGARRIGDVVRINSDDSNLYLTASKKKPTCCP
T1 sequence (P04083 whole entry): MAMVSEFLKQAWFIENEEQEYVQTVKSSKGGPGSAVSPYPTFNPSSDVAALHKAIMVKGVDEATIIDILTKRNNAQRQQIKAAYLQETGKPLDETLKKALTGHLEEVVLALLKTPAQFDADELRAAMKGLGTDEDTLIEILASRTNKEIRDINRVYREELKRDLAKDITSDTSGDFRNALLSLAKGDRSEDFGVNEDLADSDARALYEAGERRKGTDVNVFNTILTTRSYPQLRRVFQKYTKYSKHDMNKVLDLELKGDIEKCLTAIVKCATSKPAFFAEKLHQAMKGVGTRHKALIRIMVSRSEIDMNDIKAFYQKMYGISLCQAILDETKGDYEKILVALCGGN
T6 sequence (Q14980 whole entry): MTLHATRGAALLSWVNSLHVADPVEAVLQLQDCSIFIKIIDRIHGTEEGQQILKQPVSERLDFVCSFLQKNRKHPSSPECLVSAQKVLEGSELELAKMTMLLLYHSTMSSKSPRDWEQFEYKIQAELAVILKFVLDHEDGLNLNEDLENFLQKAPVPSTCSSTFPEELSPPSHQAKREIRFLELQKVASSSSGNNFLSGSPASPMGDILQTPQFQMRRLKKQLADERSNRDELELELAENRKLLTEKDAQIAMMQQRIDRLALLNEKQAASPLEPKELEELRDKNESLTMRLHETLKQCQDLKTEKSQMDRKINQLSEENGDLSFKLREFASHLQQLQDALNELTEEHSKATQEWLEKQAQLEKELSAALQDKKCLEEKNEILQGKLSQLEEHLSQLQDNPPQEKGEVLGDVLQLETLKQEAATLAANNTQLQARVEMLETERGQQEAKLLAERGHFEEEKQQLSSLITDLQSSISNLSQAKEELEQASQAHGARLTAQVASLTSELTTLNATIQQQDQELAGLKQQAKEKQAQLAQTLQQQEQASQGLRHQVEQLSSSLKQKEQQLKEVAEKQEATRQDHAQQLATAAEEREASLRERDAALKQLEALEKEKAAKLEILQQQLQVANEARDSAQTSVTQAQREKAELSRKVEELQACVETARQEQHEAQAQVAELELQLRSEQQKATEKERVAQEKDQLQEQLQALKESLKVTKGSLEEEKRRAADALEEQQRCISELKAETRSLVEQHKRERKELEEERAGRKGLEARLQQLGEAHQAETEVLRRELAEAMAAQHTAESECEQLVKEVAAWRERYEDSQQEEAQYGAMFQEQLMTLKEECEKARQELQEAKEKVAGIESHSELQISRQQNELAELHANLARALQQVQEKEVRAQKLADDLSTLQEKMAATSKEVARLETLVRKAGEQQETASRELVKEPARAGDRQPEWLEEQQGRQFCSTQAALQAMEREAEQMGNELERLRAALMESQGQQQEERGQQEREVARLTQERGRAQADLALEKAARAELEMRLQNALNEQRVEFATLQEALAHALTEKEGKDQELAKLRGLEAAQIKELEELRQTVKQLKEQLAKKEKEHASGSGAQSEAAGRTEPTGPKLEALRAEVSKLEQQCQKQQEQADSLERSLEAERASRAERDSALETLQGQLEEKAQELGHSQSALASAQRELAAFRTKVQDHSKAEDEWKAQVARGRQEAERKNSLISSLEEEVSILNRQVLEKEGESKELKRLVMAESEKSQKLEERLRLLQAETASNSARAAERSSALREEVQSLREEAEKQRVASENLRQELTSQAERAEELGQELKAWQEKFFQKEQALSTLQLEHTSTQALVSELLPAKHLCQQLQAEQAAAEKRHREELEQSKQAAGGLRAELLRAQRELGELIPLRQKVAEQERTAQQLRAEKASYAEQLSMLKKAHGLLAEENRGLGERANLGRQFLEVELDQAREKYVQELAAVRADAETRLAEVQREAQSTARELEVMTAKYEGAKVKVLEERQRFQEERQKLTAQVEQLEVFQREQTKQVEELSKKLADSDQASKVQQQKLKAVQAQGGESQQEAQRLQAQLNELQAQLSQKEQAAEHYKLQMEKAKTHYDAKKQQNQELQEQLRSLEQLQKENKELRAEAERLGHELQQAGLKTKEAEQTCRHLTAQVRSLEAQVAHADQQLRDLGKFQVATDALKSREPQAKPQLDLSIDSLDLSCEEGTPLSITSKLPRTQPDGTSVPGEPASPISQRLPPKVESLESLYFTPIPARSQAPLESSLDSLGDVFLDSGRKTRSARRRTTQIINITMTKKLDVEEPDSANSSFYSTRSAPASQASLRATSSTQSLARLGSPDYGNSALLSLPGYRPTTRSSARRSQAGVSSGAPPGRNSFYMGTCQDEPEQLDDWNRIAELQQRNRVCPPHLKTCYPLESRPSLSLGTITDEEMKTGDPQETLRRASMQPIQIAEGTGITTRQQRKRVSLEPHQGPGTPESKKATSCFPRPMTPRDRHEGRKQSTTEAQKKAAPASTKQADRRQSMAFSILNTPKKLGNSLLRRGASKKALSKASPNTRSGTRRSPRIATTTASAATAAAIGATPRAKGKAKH

With `Cn1c2c(c(=N)c3c1CCC3)CCC2` [Compound 1, 4-methyl-2,3,4,5,6,7-hexahydrodicyclopenta[b,e]pyridin-8(1H)-imine] the Difference ([1]; Cmpd minus DMSO, -LOG(P-value) 1.67082) was -2.872, the “iBAQ Cmpd” value ([1]; replicates 1-3) was 14.2553 and 14.7701 and 16.566 and the Difference ([2]; Cmpd minus DMSO, -LOG(P-value) 0.71197) was -1.503. The “iBAQ Cmpd” value ([2]; replicates 1-3) was 18.7093 and 18.978 and 19.6978, the Difference ([3]; Cmpd minus DMSO, -LOG(P-value) 0.711634) was 0.8419 and the “iBAQ Cmpd” value ([3]; replicates 1-3) was 20.3934 and 20.6157 and 19.9486. The Difference ([4]; Cmpd minus DMSO, -LOG(P-value) 0.777225) was -0.7361, the “iBAQ Cmpd” value ([4]; replicates 1-3) was 21.3956 and 22.1107 and 21.8582 and the Difference ([5]; Cmpd minus DMSO, -LOG(P-value) 0.732843) was 0.3628. The “iBAQ Cmpd” value ([5]; replicates 1-3) was 19.198 and 18.7704 and 18.706, the Difference ([6]; Cmpd minus DMSO, -LOG(P-value) 0.722853) was 1.264 and the “iBAQ Cmpd” value ([6]; replicates 1-3) was 20.9325 and 19.3521 and 19.3092. For the same molecule, the Difference ([7]; Cmpd minus DMSO, -LOG(P-value) 1.04359) was 0.4116, the “iBAQ Cmpd” value ([7]; replicates 1-3) was 19.4014 and 19.227 and 18.8879 and the Difference ([8]; Cmpd minus DMSO, -LOG(P-value) 1.01314) was 3.091. For the same molecule, the “iBAQ Cmpd” value ([8]; replicates 1-3) was 18.4151 and 17.6221 and 18.5153, the Difference ([9]; Cmpd minus DMSO, -LOG(P-value) 1.66704) was 2.667 and the “iBAQ Cmpd” value ([9]; replicates 1-3) was 18.8001 and 17.2488 and 16.5904. The Difference ([10]; Cmpd minus DMSO, -LOG(P-value) 0.85719) was 2.734 and the “iBAQ Cmpd” value ([10]; replicates 1-3) was 19.1423 and 18.4673 and 18.3569.
